In ChEMBL document CHEMBL1201862, “PubChem BioAssay data set” (2004):
Values belong to the molecule of their own block, whether it stands above or below them. Activity calls are given as the source filed them.

Assays:
cells [1] = type: functional, cell-based; details: HEK-CNG
cells [2] = type: functional, cell-based
Galanin receptor type 3 = Galanin receptor type 3 (Homo sapiens, UniProt O60755); assay: Fluorescence-based cell-based primary high throughput dose response assay to identify antagonists of the Galanin Receptor 3 (GalR3).; type: functional
cells [3] = type: functional, cell-based; remark: listed apart in the source
Albumin = Albumin (Bos taurus, UniProt P02769); assay: Counterscreen for inhibitors of T-cell receptor (TCR)-CD3 interaction: Fluorescence-based biochemical high throughput dose response assay to identify inhibitors of T-cell receptor (TCR)-CD3 interaction using a TAMRA-labeled BSA probe.; type: functional
SUMO-activating enzyme [4] = target: T1, SUMO-activating enzyme (Homo sapiens, UniProt Q9UBT2); assay: SUMOylation inhibitor hit validation, confirmation, SUMOylation inhibitor project, biochemical, AlphaScreen (AID 2018); type: functional
T1 sequence (Q9UBE0 whole entry): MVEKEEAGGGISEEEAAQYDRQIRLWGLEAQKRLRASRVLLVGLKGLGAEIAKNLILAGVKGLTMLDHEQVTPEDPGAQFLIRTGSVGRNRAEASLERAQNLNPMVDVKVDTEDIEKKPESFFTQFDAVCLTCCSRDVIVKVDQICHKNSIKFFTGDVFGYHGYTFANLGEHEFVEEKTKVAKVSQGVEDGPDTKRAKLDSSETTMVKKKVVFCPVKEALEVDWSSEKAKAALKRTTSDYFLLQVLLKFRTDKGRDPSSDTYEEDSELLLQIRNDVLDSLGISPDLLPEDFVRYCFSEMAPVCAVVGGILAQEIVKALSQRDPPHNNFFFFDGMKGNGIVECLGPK
T1 sequence (Q9UBT2 whole entry): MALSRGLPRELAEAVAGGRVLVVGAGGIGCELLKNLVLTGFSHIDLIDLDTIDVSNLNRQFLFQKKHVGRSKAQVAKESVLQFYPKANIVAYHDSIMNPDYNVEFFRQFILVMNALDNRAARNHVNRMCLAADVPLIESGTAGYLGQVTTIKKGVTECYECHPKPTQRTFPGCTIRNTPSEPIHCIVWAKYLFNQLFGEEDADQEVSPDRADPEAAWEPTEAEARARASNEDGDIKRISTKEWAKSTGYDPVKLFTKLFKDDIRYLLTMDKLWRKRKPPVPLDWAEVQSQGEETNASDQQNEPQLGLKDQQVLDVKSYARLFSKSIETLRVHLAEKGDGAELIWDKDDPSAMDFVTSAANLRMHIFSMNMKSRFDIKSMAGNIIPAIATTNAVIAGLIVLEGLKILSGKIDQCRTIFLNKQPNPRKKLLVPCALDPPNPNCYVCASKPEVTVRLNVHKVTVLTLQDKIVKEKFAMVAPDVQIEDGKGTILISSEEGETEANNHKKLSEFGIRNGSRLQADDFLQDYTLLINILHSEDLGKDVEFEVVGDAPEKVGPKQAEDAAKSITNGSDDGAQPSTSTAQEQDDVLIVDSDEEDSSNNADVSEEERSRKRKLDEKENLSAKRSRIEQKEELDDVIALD

SUMO-activating enzyme [5] = target: T1, SUMO-activating enzyme; assay: inhibitors of in vitro SUMOylation cascade, primary screen, biochemical, HTRF, uHTS (AID 2006); type: protein-complex assay
[6] = target: T2, Intestinal-type alkaline phosphatase (Mus musculus, UniProt P24822); assay: PubChem AID 488874; type: functional
T2 sequence (P24822 whole entry): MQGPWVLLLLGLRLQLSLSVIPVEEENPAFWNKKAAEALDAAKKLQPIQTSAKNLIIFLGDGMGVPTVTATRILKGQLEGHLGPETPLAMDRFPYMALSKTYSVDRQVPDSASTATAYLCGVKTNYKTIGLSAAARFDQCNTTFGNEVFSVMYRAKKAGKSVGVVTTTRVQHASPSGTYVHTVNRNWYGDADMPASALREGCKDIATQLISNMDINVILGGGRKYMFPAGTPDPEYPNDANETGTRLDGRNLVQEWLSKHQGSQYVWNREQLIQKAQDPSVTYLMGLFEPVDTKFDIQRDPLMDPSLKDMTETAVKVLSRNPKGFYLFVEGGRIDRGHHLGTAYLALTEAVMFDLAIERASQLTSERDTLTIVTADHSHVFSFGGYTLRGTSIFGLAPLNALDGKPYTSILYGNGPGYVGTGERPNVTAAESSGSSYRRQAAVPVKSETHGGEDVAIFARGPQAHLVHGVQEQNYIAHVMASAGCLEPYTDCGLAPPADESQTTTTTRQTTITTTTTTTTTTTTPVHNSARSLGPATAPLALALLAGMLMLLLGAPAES

[7] = target: Alkaline phosphatase, placental type (Homo sapiens, UniProt P05187); assay: PLAP enzyme inhibitors, confirmation, biochemical, luminescence (AID 1512); type: functional
Alkaline phosphatase, placental type, sequence (P05187 whole entry): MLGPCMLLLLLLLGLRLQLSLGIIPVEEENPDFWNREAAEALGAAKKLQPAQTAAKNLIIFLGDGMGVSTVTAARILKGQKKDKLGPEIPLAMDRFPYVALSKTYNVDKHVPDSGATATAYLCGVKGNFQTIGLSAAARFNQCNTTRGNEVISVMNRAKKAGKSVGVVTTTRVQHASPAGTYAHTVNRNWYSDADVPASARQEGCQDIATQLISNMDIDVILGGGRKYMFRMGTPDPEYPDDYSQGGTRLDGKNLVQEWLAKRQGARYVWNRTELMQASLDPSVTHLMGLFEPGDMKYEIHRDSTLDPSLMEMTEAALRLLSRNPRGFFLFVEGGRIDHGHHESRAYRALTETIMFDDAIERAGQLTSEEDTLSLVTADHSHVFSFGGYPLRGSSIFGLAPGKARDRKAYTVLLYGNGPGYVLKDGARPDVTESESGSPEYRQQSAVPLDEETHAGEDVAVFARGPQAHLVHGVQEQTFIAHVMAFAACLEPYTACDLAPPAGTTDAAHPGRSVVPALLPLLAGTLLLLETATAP

[8] = target: T3, Intestinal-type alkaline phosphatase (Homo sapiens, UniProt P09923); assay: human IAP activators, dose response, biochemical, luminescent, uHTS hits, set 2 (AID 488817); type: functional;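 further: potency of activators that raise enzyme activity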
T3 sequence (P09923 whole entry): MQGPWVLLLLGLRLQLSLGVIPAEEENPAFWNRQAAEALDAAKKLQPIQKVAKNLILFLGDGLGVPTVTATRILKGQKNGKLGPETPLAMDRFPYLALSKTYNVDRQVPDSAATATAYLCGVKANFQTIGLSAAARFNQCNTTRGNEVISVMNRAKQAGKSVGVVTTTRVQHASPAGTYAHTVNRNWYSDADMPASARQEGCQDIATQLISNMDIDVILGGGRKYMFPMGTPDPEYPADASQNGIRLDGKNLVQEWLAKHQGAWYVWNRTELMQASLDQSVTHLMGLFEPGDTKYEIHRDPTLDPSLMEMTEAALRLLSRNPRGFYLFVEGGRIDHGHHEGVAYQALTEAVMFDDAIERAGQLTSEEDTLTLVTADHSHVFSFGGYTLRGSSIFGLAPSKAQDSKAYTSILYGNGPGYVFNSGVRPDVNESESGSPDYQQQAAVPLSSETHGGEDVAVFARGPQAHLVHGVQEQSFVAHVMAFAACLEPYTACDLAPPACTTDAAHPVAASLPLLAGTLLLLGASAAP

[9] = target: T3, Intestinal-type alkaline phosphatase; assay: human intestinal alkaline phosphatase activators, dose response, biochemical, luminescence, uHTS hits (AID 463120); type: functional
[10] = target: Glyceraldehyde-3-phosphate dehydrogenase (Homo sapiens, UniProt P04406)
[11] = target: T4, Runt-related transcription factor 1/Core-binding factor subunit beta (Homo sapiens, UniProt Q01196+Q13951); assay: Confirmation of compounds inhibiting the binding between the RUNX1 Runt domain and CBFb-SMMHC via a fluorescence resonance energy transfer (FRET) assay. [Related pubchem assays (depositor defined):AID1434, AID1438, AID1496, AID1550, AID1645]; type: protein assay
T4 sequence (Q01196 whole entry, the tested form may be a part): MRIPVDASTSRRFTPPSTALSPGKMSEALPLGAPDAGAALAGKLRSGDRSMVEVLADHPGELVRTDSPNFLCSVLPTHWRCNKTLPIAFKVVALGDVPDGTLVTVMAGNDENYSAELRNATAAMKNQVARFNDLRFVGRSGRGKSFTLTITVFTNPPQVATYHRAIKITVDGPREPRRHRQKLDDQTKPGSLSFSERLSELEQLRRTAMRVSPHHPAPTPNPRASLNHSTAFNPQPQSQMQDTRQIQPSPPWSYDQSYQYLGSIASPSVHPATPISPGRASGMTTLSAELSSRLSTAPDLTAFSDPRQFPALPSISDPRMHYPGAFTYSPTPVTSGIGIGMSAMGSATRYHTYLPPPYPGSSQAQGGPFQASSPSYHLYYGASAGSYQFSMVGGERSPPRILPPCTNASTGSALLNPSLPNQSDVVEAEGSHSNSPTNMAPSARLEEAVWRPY
T4 sequence (Q13951 whole entry, the tested form may be a part): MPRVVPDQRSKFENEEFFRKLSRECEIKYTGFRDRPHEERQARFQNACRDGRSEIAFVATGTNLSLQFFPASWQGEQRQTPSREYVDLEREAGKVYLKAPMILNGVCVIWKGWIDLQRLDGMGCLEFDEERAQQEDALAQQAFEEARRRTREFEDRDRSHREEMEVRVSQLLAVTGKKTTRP

[12] = target: T4, Runt-related transcription factor 1/Core-binding factor subunit beta; assay: Confirmation of compounds inhibiting the binding between the RUNX1 Runt domain and CBFb-SMMHC via a time resolved fluorescence resonance energy transfer (TR-FRET) assay. [Related pubchem assays (depositor defined):AID1434, AID1438, AID1496, AID1560, AID1645]; type: protein assay
Coagulation factor XII = target: T5, Coagulation factor XII (Homo sapiens, UniProt P00748); assay: FXIIa inhibitor potency, concentration-response, biochemical (AID 716); type: functional
T5 sequence (P00748 whole entry): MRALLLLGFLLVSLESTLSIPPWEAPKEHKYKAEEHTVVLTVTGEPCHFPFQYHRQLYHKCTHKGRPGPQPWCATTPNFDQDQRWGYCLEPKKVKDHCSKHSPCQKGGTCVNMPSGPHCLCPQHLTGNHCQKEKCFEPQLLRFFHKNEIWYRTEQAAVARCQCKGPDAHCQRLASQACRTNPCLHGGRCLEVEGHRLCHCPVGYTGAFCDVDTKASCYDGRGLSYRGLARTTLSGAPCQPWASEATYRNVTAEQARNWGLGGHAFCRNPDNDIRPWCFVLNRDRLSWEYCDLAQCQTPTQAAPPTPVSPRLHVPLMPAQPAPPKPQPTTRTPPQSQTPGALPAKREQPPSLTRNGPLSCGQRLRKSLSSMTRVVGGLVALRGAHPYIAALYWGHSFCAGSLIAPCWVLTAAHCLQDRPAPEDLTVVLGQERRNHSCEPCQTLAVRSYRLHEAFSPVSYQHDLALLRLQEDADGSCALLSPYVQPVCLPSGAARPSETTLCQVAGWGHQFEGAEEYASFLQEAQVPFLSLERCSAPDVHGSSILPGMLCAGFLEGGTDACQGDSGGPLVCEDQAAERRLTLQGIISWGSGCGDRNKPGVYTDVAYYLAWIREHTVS

[13] = target: T3, Intestinal-type alkaline phosphatase; assay: activation of human intestinal alkaline phosphatase – biochemical, dose response (AID 488873); type: functional
[14] = target: T6, Alkaline phosphatase, tissue-nonspecific isozyme (Homo sapiens, UniProt P05186); assay: TNAP enzyme activators, dose response, selectivity assay for mouse IAP activator project, biochemical, TNAP isozyme, mouse IAP uHTS hits (AID 488880); type: functional
T6 sequence (P05186 whole entry): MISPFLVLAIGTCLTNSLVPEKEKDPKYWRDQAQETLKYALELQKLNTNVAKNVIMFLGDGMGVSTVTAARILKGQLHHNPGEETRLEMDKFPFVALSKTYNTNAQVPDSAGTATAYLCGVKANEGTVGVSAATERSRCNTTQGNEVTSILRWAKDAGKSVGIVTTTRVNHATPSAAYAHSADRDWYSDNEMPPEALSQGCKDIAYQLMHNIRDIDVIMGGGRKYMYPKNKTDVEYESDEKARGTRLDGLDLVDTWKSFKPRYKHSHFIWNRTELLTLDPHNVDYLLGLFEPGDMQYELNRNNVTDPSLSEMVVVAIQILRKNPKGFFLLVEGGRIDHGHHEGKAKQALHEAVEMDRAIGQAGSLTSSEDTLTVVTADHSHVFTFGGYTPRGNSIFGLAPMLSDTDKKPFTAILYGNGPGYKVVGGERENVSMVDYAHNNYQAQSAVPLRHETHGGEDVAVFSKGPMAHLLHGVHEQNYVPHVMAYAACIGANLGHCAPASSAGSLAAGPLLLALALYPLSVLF

Large T antigen = Large T antigen (Simian virus 40, UniProt P03070); type: functional, Betapolyomavirus macacae;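 further: Confirmatory-stage PubChem screen for compounds that inhibit SV40 T antigen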
Large T antigen, sequence (P03070 whole entry): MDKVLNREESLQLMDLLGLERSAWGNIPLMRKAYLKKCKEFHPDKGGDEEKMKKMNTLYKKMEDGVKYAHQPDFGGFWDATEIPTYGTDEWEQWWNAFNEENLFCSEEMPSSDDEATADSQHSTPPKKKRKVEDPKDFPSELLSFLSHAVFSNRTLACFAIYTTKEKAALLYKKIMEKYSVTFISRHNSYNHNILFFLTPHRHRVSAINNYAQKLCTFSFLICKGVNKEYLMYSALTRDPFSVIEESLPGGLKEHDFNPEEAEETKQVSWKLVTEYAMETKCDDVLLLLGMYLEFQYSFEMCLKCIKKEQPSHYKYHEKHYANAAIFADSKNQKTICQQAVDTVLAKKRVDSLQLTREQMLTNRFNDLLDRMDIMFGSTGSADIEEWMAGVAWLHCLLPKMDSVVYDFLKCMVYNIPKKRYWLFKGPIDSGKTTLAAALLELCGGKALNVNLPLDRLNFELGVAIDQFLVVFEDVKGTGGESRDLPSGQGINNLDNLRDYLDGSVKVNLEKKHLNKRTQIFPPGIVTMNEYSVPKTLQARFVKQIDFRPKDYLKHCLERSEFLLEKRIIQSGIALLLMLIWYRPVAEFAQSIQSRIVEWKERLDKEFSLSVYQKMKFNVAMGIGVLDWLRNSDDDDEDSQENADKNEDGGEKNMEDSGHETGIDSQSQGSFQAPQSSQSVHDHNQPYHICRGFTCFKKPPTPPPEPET

[15] = target: T2, Intestinal-type alkaline phosphatase; assay: mouse intestinal alkaline phosphatase activators, dose response, biochemical, luminescence, uHTS hits (AID 488783); type: functional
Vero = Vero cell cytotoxicity, cytotoxicity control for flavivirus capping enzyme inhibitors (AID 588742); type: functional; details: Chlorocebus sabaeus
[16] = control 3'UTR Renilla luciferase suppression, dose response, counter-screen for Shn3 inhibitor project, cell-based, Clone20-Shn3RL, cherry-picked (AID 624133); type: functional
Paired box protein Pax-8 = Paired box protein Pax-8 (Homo sapiens, UniProt Q06710); assay: inhibitors of PAX8-driven TPO luciferase reporter, dose response, RMG-I cells, cherry-pick (AID 687027); type: functional, cell-based;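 further: luciferase reporter driven by Pax8 target thyroperoxidase promoter measured by SteadyGlo luminescence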
Paired box protein Pax-8, sequence (Q06710 whole entry): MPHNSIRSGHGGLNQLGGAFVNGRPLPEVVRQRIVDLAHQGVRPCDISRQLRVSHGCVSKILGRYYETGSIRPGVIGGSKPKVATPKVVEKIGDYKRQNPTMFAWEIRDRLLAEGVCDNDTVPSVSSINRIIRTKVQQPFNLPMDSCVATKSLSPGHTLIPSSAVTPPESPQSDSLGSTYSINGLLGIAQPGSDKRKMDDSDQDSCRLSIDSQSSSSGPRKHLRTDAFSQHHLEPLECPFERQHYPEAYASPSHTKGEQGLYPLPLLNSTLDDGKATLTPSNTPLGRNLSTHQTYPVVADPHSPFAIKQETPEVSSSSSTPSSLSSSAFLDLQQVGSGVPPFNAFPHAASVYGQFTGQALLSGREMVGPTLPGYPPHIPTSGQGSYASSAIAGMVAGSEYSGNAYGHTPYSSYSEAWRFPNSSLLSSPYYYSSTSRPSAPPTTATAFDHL

[17] = Shn3 3'UTR reporter inhibitors, dose response, cell-based, Clone20 osteoblasts, firefly luciferase, cherry-picked (AID 624132); type: functional;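 further: firefly luciferase luminescence from reporter carrying the Shn3 3'UTR in osteoblasts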
HEK293 [18] = assay: cells; type: functional, cell-based; details: Homo sapiens
HEK293 [19] = assay: NOD1 signaling inhibitors, primary screen, cell-based, luminescence, uHTS (AID 1578); type: functional; details: Homo sapiens
HEK293 [20] = assay: NOD2 signaling inhibitors in MDP-stimulated cells, cell-based, uHTS, luminescence (AID 2001); type: functional; details: Homo sapiens
HEK293 [21] = assay: cells; type: functional, cell-based; details: Homo sapiens; remark: listed apart in the source
[22] = HepG2 cell cytotoxicity, dose response, cytotoxicity control for Shn3 inhibitor project, CellTiter-Glo, cherry-picked (AID 624134); type: functional, cell-based
[23] = target: G-protein coupled receptor 55 (Homo sapiens, UniProt Q9Y2T6); assay: GPR55 agonists via beta-arrestin recruitment, primary screen, imaging, U2OS cells, beta-arrestin-GFP redistribution (AID 1961); type: functional
[24] = non-specific cell cytotoxicity, dose response, cytotoxicity control for PAX8 inhibitor project, plate reader, dry powder samples (AID 743021); type: functional, cell-based
HEK293 [25] = assay: cells; type: functional, cell-based; details: Homo sapiens; remark: listed apart in the source
[26] = target: Nucleotide-binding oligomerization domain-containing protein 2 (Homo sapiens, UniProt Q9HC29); assay: NOD2 signaling inhibitors, cell-based, luminescence, uHTS, HEK293 (AID 1566); type: functional
Streptococcus = assay: Group A Streptococcus viability loss, dose response, counter-screen for streptokinase expression inhibitor project, luminescence, BacTiterGlo (AID 1915); type: functional, organism-based;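 further: potency for reduction of bacterial viability or growth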
[27] = target: T4, Runt-related transcription factor 1/Core-binding factor subunit beta; assay: inhibitors of RUNX1 Runt–CBFb-SMMHC binding, biochemical, TR-FRET (AID 1438); type: protein assay
[28] = target: T4, Runt-related transcription factor 1/Core-binding factor subunit beta; assay: inhibitors of RUNX1 Runt–CBFb-SMMHC binding, primary screen, biochemical, FRET, Cerulean-Runt, Venus-CBFb-SMMHC, uHTS (AID 1434); type: protein assay;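 further: partner is the CBFb-SMMHC leukemia fusion protein rather than wild-type CBFb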
[29] = system: Streptococcus sp. 'group A'; assay: growth inhibition of control SK(-) GAS strain, dose response, counter-screen for streptokinase expression inhibitor project, luminescence, kanamycin, BacTiterGlo, confirmation (AID 1900); type: functional, organism-based
[30] = target: Kappa-type opioid receptor (Homo sapiens, UniProt P41145); assay: SAR analysis of small molecule agonists of the kappa opioid receptor via a luminescent beta-arrestin assay - Set 3. [Related pubchem assays (depositor defined):AID1777, AID1785, AID1786, AID1966, AID2133, AID2136, AID2284, AID2500]; type: functional
INS1 = assay: beta cell apoptosis inhibitors, cytokine rescue, dose response, luminescence, retest (AID 449756); type: functional, cell-based; details: Rattus norvegicus;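 further: cell death triggered by IL-1 beta plus TNF-alpha plus IFN-gamma mixture; protective hits raise ATP signal compared with cytokine alone wells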
[31] = inhibitors of intracellular T. cruzi replication, confirmation, NIH3T3 host cells, beta-gal luminescence (AID 2044); type: functional, cell-based;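 further: intracellular parasites grown in NIH/3T3 mouse fibroblasts as host cells; luminescent beta-galactosidase reporter signal from transgenic T. cruzi replicating inside host cells; inhibitors lower the luminescence signal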
Cytochrome P450 3A4 = Cytochrome P450 3A4 (Homo sapiens, UniProt P08684);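 further: CYP3A4 tested as one member of a cytochrome P450 panel screen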
Cytochrome P450 2D6 = Cytochrome P450 2D6 (Homo sapiens, UniProt P10635);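 further: CYP2D6 member of a cytochrome P450 panel assay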
Mucolipin-3 = Mucolipin-3 (Homo sapiens, UniProt Q8TDD5); assay: Fluorescence counterscreen assay for […] agonists: dose response cell-based high-throughput screening assay to identify agonists of the transient receptor potential channel ML3 (TRPML3). [Related pubchem assays: 1424, 1448 ]; type: functional
[32] = cytotoxicity toward NIH3T3 fibroblasts, dose response, counter-screen, cell-based, ATP luminescence, mouse fibroblasts (AID 2010); type: functional;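 further: cells exposed to compound for about 90 hours before reading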
Ion channel NompC = Ion channel NompC (Danio rerio, UniProt Q7T1G6); assay: Dose response cell-based high-throughput screening assay for agonists of the transient receptor potential channel N1 (TRPN1). [Related pubchem assays (depositor defined):AID1424, AID1448]; type: functional
[33] = Luminescence Cell-Based Dose Retest to Confirm Inhibitors of Cancer Stem Cells. [Related pubchem assays (depositor defined):AID2717, AID2721]; type: functional; details: Homo sapiens
[34] = target: Tyrosine-protein phosphatase non-receptor type 7 (Homo sapiens, UniProt P35236); assay: HePTP (PTPN7) phosphatase inhibitor potency, SAR follow-up, biochemical, set 2 (AID 449736); type: functional
Tyrosine-protein phosphatase non-receptor type 7, sequence (P35236 whole entry): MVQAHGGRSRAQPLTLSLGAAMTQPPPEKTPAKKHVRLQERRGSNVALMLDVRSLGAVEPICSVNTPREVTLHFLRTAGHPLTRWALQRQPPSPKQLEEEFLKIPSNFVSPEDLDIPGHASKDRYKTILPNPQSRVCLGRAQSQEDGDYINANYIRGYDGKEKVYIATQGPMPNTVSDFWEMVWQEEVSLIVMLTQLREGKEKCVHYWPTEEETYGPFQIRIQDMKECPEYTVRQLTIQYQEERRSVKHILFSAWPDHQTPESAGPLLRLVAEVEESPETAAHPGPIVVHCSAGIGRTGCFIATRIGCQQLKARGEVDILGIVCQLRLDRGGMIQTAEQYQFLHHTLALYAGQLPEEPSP

[35] = decrease of PhoP-driven GFP reporter signal, S. Typhimurium, dose response, PhoP regulon inhibitor project, purified and synthesized compounds, set 2 (AID 2831); type: functional

Compound: C/C(=N\OCc1nc2ccccc2c(=O)n1/N=C/c1cc(C)cc([N+](=O)[O-])c1O)c1ccccc1
- EC50 (cells [1]): > 29.9 µM (inactive)
- EC50 (cells [2]): 78 µM (active)
- IC50 (Galanin receptor type 3): 3.39 µM (active)
- EC50 (cells [3]): > 350 µM (not active)
- IC50 (Albumin): > 94.1 µM (inactive)
- IC50 (SUMO-activating enzyme [4]): 1.2 µM (active)
- IC50 (SUMO-activating enzyme [5]): 8.77 µM (active)

- IC50 [6]: > 100 µM (inactive)
- IC50 [7]: > 100 µM (inactive)
- EC50 [8]: 21 µM (active)
- EC50 [9]: 10.7 µM (active)
- IC50 [10]: > 10 µM (inconclusive)
Compound: Cc1cc(OCC(=O)Nc2nc[nH]n2)ccc1Cl

Compound: Cc1cc(C=NNC(=O)Cn2c3ccccc3c(=O)c3ccccc32)c(C)n1-c1ccc(Cl)cc1
- IC50 [11]: 3.58 µM (active)
- IC50 [12]: 13.6 µM (active)

- IC50 (Coagulation factor XII): > 50 µM (inactive)
Compound: COc1ccc2oc(C)c(C(=O)Cn3ccnc3)c2c1

- EC50 [13]: > 100 µM (inactive)
- EC50 [14]: > 100 µM (inactive)
- IC50 (Large T antigen): 85 µM (active)
- EC50 [15]: 2.03 µM (active)
Compound: O=C(CN1C(=O)/C(=C/c2ccco2)SC1=S)NC1CCS(=O)(=O)C1 (configuration not stated)
- CC50 (Vero): > 40 µM (active)

Compound: CCOc1ccc(C(=O)C(CCC(CN(C)C)C(=O)c2ccc(OCC)cc2)CN(C)C)cc1 (configuration not stated)
- AC50 [16]: 7.72 µM (active)
- AC50 (Paired box protein Pax-8): 4.27 µM (active)
- AC50 [17]: 1.61 µM (active)
- IC50 (HEK293 [18]): 1.53 µM (active)
- EC50 (HEK293 [19]): 15.9 µM (active)
- IC50 (HEK293 [20]): 2.48 µM (active)
- IC50 (HEK293 [21]): 6.72 µM (active)
- AC50 [22]: 6.77 µM (active)
- EC50 [23]: > 32 µM (inactive)
- AC50 [24]: 36.7 µM (active)
- IC50 (HEK293 [25]): > 20 µM (inactive)
- EC50 [26]: > 20 µM (inactive)

Compound: COCCNC(=O)c1c(NC(=O)c2ccc(Br)o2)n(Cc2ccccc2)c2nc3ccccc3nc12
- EC50 (Streptococcus): 4.36 µM (active)
- IC50 [27]: > 100 µM (inactive)
- IC50 [28]: 2.14 µM (active)
- EC50 [29]: 1.9 µM (active)

- EC50 [30]: > 20 µM (inactive)
Compound: COc1ccc(Cn2c(SCc3ccccc3)nnc2-c2ccccn2)cc1

Compound: COC(=O)c1cccc(NC(=O)Nc2ccc(Cl)c(Cl)c2)c1
- AC50 (INS1): 6.38 µM (active)
- EC50 [31]: 2.15 µM (active)
- AC50 (Cytochrome P450 3A4): 22.4 µM (inconclusive)
- AC50 (Cytochrome P450 2D6): 22.4 µM (inconclusive)
- EC50 (Mucolipin-3): > 29.9 µM (not active)
- EC50 [32]: > 60 µM (inconclusive)
- EC50 (Ion channel NompC): > 29.9 µM (inactive)
- AC50 [33]: 2.77 µM (active)

Compound: NS(=O)(=O)c1ccc(NC(=S)Nc2ccc3c(c2)CCC3)cc1
- IC50 [34]: 7.93 µM (active)

- IC50 [35]: > 125 µM (active)
Compound: O=C(Nc1ccc(Cl)cc1)N1CCCN(Cc2ccccc2F)C1
